Source: patent US4013507A, “Ionene polymers for selectively inhibiting the vitro growth of malignant cells” (California Institute of Technology, priority 1975, dated 1977)

What was measured:
[1] = test system: L1210 leukemia system; conditions: when quaternized; J. Med. Chem. 10, 706, 1967; cited from earlier work
[2] = in vivo; conditions: mouse
From the text: Due to the high positive charge density and high water solubility, ionenes strongly interact with a wide variety of cell materials.

[3] = test system: sulfhydryl groups on the cell periphery; test: Effect of N-ethylmaleimide pretreatment on cell adhesion to ionene-coated surface; format: cell-based; conditions: pretreatment of the cells
From the text: Chemical interaction with DNA is also a possibility. In fact, ionenes form strong waterinsoluble complexes with DNA.

[4] = test system: DNA; conditions: polyamines, general knowledge; cited from earlier work
[5] = Repeated-dose tolerance of PC-6 and cyclophosphamide in mice; format: in vivo; conditions: similar doses to nine doses of 100 mg/kg per day
[6] = in vivo
From the text: Protamine sulfate and toluidine blue, neither of which are free of toxic effects, are clinically used as antiheparin agents.

[7] = Protective action of heparin against toxicity of 6,3-ionene bromide, dogs; format: in vivo
From the text: (§1) This is not surprising considering the formation of relatively stable complexes between ionenes and heparin.

[8] = Protective action of heparin against toxicity of 6,3-ionene bromide, mice; format: in vivo
From the text: as §1

For `O=C(Nc1ccc(-c2ccncc2)cc1)c1ccc(C(=O)Nc2ccc(-c3ccncc3)cc2)cc1`, the “Effectiveness against L1210 leukemia system” value [1] is listed as “very effective against the L1210 leukemia system when quaternized”.
In the case of `C[N+](C)(CBr)CCCCCC[N+](C)(C)CBr`, the LD50 ([2]; ip) was 10 to 50 mg/kg and the LD50 ([2]; po) was 300 to 500 mg/kg.
`C[N+](C)(CCBr)CCCCCC[N+](C)(C)CCBr` gave an LD50 ([2]; ip) of 10 to 50 mg/kg and an LD50 ([2]; po) of 100 to 200 mg/kg.
`C[N+](C)(CBr)CCCC[N+](C)(C)CBr` gave an LD50 ([2]; ip) greater than 1000 mg/kg and an LD50 ([2]; po) greater than 1000 mg/kg.
In the case of `C[N+]1(C)CC[N+](C)(C)CC1`, the LD50 ([2]; ip) was greater than 1000 mg/kg and the LD50 ([2]; po) was greater than 1000 mg/kg.
For `CCN1C(=O)C=CC1=O` [N-ethylmaleimide (NEM), N-ethylmaleimide], the “Effect on cell adhesion on an ionene-coated surface” value [3] was “inhibited cell adhesion on an ionene-coated surface”.
In the case of `NCCCCNCCCN` [Spermidine, NH2 (CH2)3 --NH--(CH2)4 NH2], the “Binding to DNA” value [4] is listed as “bind to DNA”.
In the case of `NCCCNCCCCNCCCN` [Spermine, NH2 (CH2)3 NH(CH2)4 NH(CH2)3 NH2], the “Binding to DNA” value [4] is given as “bind to DNA”.
In the case of `O=P1(N(CCCl)CCCl)NCCCO1` (stereo not drawn) [cyclophosphamide], the “Lethality of similar doses” value [5] was “lethal within a much shorter time”.
In the case of `Cc1cc2nc3ccc(N(C)C)cc3[s+]c2cc1N` [toluidine blue], the LD50 ([6]; in vivo, iv) was 45 mg/kg.
With Heparin the “Protective action in neutralizing the toxicity of 6,3-ionene bromide” value [7] was “offers a protective action in neutralizing the toxicity of 6,3-ionene bromide”, the “Survival of mice pretreated with heparin” value ([8]; 6,3-ionene bromide doses relative to LD50, heparin pretreatment) was “survive doses three times the LD50 values with only mild toxicity symptoms” and the “Protective action in neutralizing the toxicity of 6,3-ionene bromide” value ([8]; mice) was “offers a protective action in neutralizing the toxicity of 6,3-ionene bromide”.
For Protamine sulfate, the “i.v. LD50” value ([6]; i.v., comparison agents, species not given) was 44 mg/kg.
